Key:
[1] = system: activated human mast cell line (HMC-1 cells); assay: Real-time PCR of cytokine transcripts in activated HMC-1 cells; assay type: cell-based; conditions: 50 μM, 37° C., 4 hours; HMC-1 cells activated with A23187 and PMA; normalized with GAPDH
Method: HMC-1 cells were grown in IMDM media supplemented with 100 U/ml of penicillin, 100 µg/ml of streptomycin, and 10% heat-inactivated FBS in an incubator containing 5% CO2 at 37° C. HMC-1 cells were activated by treatment with A23187 and PMA
In order to understand the inhibitory effect of capsiate on the increase of cytokines in activated HMC-1 cells, HMC-1 cells were treated with 50 μM of capsiate and capsaicin at 37° C. for 4 hours, respectively, and the transcript expressions of cytokines IL-6 and TNF-α were confirmed through real-time PCR. Total RNA was isolated from HMC-1 cells with RNeasy Mini kit (Quiagen, Valencia, Calif., USA) and the first strand of cDNA was synthesized using QuantTect Reverse Transcription kit (Quiagen, Germany). Real-time PCR was performed using KAPA SYBR fast qPCR kit (KAPA Blosystems, Woburn, Mass., USA). The following parameters were used for the PCR: 95° C. for 10 minutes, followed by 50 cycles of 95° C. for 20 seconds, 55° C. for 30 seconds, and 72° C. for 20 seconds. The gene expression levels were normalized with GAPDH expression level. The primer sets for IL-6 and TNF-α were purchased from QIAGEN.

[2] = system: activated human mast cell line (HMC-1 cells); assay: ELISA of cytokines in activated HMC-1 cells; assay type: cell-based; conditions: 50 μM, 37° C., 16 hours
Method: (§1) HMC-1 cells were grown in IMDM media supplemented with 100 U/ml of penicillin, 100 µg/ml of streptomycin, and 10% heat-inactivated FBS in an incubator containing 5% CO2 at 37° C. HMC-1 cells were activated by treatment with A23187 and PMA In order to understand the inhibitory effect of capsiate on the increase of cytokines in activated HMC-1 cells, HMC-1 cells were treated with 50 μM of capsiate and capsaicin at 37° C. for 16 hours, and the expression levels of cytokines IL-6 and TNF-α were confirmed through ELISA assay. Capture antibody was added in ELISA plate and incubated overnight 4° C. Next day, the capture antibody was washed with PBS/Tween buffer, and blocking buffer was added. After 1 hr incubation at room temperature, the blocking buffer was washed out and standard or sample supernatant was added. The plate was incubated overnight at 4° C. and washed out. After washing, detection antibody was added and incubated for 1 hr at room temperature, followed by washing the plate. Streptavidin-HRP was added to each well, incubated at room temperature for 30 mins, and then the plate was washed. TMB was used as a substrate. After TMB was added to the plate, stop solution was added to stop color development, and the plate was read using ELISA reader.

[3] = system: activated mouse bone marrow derived mast cells (BMMCs); assay: Real-time PCR of cytokine transcripts in activated BMMCs; assay type: cell-based; conditions: 50 μM, 37° C., 4 hours; BMMCs activated by anti-mouse DNP-IgE and DNP-HSA
Method: (§2) Bone marrow cells were obtained from tibias and femurs of approximately 8 to 10 week old C57/BL/6 mice and cultured in RPMI 1640 media supplemented with 10% FCS, 100 U/ml of penicillin, 100 μg/ml of streptomycin in the presence of mIL-3 (10 ng/ml) and mSCF (50 ng/ml) for 6 weeks in an incubator containing 5% CO2 at 37° C. […] BMMC were activated by 1 μg/ml of anti-mouse DNP-IgE for overnight, followed by the treatment with 10 ng/ml of DNP-HSA for 6 hr to 24 hr.
In order to understand the inhibitory effect of capsiate on the increase in cytokines in activated BMMCs, BMMCs were treated with 50 μM of capsiate at 37° C. for 4 hours, and the transcript expressions of cytokines IL-6 and TNF-α were confirmed through real-time PCR. Total RNAs were isolated from […] with RNeasy Mini kit (Quiagen, Valencia, Calif., USA) and the first strand of cDNA was synthesized using QuantTect Reverse Transcription kit (Quiagen, Germany). Real-time PCR was performed using KAPA SYBR fast qPCR kit (KAPA Blosystems, Woburn, Mass., USA). The following parameters were used for the PCR: 95° C. for 10 mins, followed by 50 cycles of 95° C. for 20 s, 55° C. for 30 s, and 72° C. for 20s. The gene expression levels were normalized with GAPDH expression level. The primer sets for IL-6 and TNF-α were purchased from QIAGEN.

[4] = system: activated mouse bone marrow derived mast cells (BMMCs); assay: ELISA of cytokines in activated BMMCs; assay type: cell-based; conditions: 50 μM, 37° C., 16 hours
Method: as §2
as §1, with “In order” for “HMC-1 cells were grown in IMDM media supplemented with 100 U/ml of penicillin, 100 µg/ml of streptomycin, and 10% heat-inactivated FBS in an incubator containing 5% CO2 at 37° C. HMC-1 cells were activated by treatment with A23187 and PMA In order”, “in activated BMMCs, BMMCs were treated” for “in activated HMC-1 cells, HMC-1 cells were treated”, “of capsiate at 37°” for “of capsiate and capsaicin at 37°”, “Capture antibody for IL-6 or TNF-α was added” for “Capture antibody was added”, “detection antibody for IL-6 and TNF-α was added” for “detection antibody was added”

[5] = system: atopic dermatitis induced by 2,4-dinitro-1-fluorobenzene (DNFB) in mice; assay: Atopic dermatitis induced by DNFB in mice, histological staining and epidermal thickness; assay type: in vivo; conditions: 1 mM capsiate in acetone coated 1 hour before DNFB treatment
Method: (§3) DNFB was sensitized by being diluted to 0.15% with a vehicle in which acetone and olive oil are mixed in a ratio of 3:1. Atopic dermatitis was induced by treating twice with a 0.2% DNFB solution. The capsiate-treated group was coated with 1 mM capsiate dissolved in acetone, 1 hour before DNFB treatment (See FIG. 5).
After being cut with induced atopic dermatitis, the skin tissue was fixed in 4% formaldehyde for 24 hours, followed by washing and dehydration, and then a […] skin section was prepared using a paraffin block. The tissue section was deparaffinized with xylene, immerged in alcohol, and then stained with hematoxyline and eosin. After the staining, the tissue was observed using a phase contrast microscope. As for the dermal thickness, the dermal thicknesses at five places on the tissue image were measured, and the mean and standard deviation thereof were obtained and shown on a graph.

[6] = system: serum IgE; assay: Serum IgE level (ELISA) in atopic dermatitis mouse model induced by DNFB; assay type: in vivo, mice
Method: as §3
IgE capture antibody was added in the plate, and allowed to stand at 4° C. overnight. The next day, the capture antibody was washed with PBS/Tween buffer, and blocking buffer was added, followed by reaction at room temperature for 1 hour. After the blocking buffer was washed out, IgE standard and mouse serum were added, followed by standing at 4° C. overnight. The next day, after washing was performed, the IgE detection antibody was added, followed by reaction at room temperature for 1 hour. After washing was again performed, Streptavidin-HRP was added, followed by a reaction at room temperature for 30 minutes. After washing was again performed, TMB as a substrate was added. Then, a stop solution was added, and the absorbance was measured using an ELISA reader.

[7] = system: atopic dermatitis sites of mice; assay: Cytokine expression (real-time PCR) in mouse atopic dermatitis sites; assay type: in vivo; conditions: atopic dermatitis site, 1 mM capsiate, dosing as in example 3-1
Method: as §3
(§4) The cytokine inhibitory effect of capsiate was verified at atopic dermatitis sites of mice. The dosing concentrations of DNFB and capsiate were the same as in example <3-1> above, and the transcript expressions of cytokines IL-4 and TSLP were confirmed through real-time PCR. Real-time PCR conditions were established by the same method as in example <1-2> above, and the primer set was purchased from QIAGEN.

[8] = system: atopic dermatitis sites of mice; assay: Chemokine expression (real-time PCR) in mouse atopic dermatitis sites; assay type: in vivo; conditions: atopic dermatitis site, 1 mM capsiate, dosing as in example 3-1
Method: as §3
as §4, with “chemokine” for “cytokine”, “in” for “was verified at”, “mice was verified.” for “mice.”, “chemokines CCL11, CCL17,” for “cytokines IL-4”, “CCL22” for “TSLP”

[9] = system: Th2 cell differentiation, lymph node; assay: Th2 cell differentiation in lymph node of atopic dermatitis mouse model; assay type: in vivo, mice; conditions: lymph node cells; intracellular staining CD4, IL-4, IL-5; dosing as in example 3-1
Method: as §3
(§5) After lymphocytes were taken out from mice, a single cell suspension was prepared, and then 3 μg/ml of anti-CD28 antibody was added in the plate to which anti-CD3 antibody adheres, followed by incubation for 3 days. On the third day, PMA (20 ng/ml) and ionomycin (1 μM) were added, followed by incubation for 5 hours. The cells were collected, and then subjected to intracellular staining using Cytofix/Cytoperm kit (BD bioscience) and anti-CD4 antibody, anti-IL-4 antibody, and anti-IL-5 antibody (BD bioscience). The dosing concentrations of DNFB and capsiate were the same as in example <3-1> above.

[10] = system: Th2 cell differentiation, spleen; assay: Th2 cell differentiation in spleen of atopic dermatitis mouse model; assay type: in vivo, mice; conditions: spleen cells; intracellular staining CD4, IL-4, IL-5; dosing as in example 3-1
Method: as §3
as §5, with “the spleen was” for “lymphocytes were”

[11] = system: passive cutaneous anaphylaxis (PCA); assay: Passive cutaneous anaphylaxis (PCA): capillary vessel permeability and mouse ear thickness; assay type: in vivo
Method: The passive cutaneous anaphylaxis inhibitory effect of capsiate was verified by measuring capillary vessel permeability and mouse ear thickness. The capillary vessel permeability was verified by intravenously injecting Evan's blue, which is a blue staining agent, mixed with antigen, and quantifying the staining agent coming out from ear capillary vessels to the skin tissue. The quantification was conducted by cutting the ear tissue, putting the cut ear tissue in formamide, performing incubation at 65° C. for 16 hours, extracting Evan's blue in the ear tissue, and measuring the absorbance. The mouse ear thickness was measured using D15 ear thickness gauge.

[12] = system: BMCC induced with IgE antigen; assay: Pro-inflammatory cytokine expression (real-time PCR) in BMCC induced with IgE antigen; assay type: cell-based, mouse
From the text: The inflammatory cytokine expression inhibitory effect of capsiate was verified in BMCC induced with IgE antigen. The transcript expressions of cytokines IL-1β, IL-6, and TNF-α were verified through real-time PCR. Real-time PCR conditions were established by the same method as in example <1-2> above, and the primer set was purchased from QIAGEN.

COc1cc(CNC(=O)CCCC/C=C/C(C)C)ccc1O [capsaicin, reference compound]
transcript expression of IL-6 (real-time PCR) [1]: increased | transcript expression of TNF-α (real-time PCR) [1]: increased | expression level of IL-6 (ELISA) [2]: increased | expression level of TNF-α (ELISA) [2]: increased | transcript expression of IL-6 (real-time PCR) [3]: increased | transcript expression of TNF-α (real-time PCR) [3]: increased | expression level of IL-6 (ELISA) [4]: increased | expression level of TNF-α (ELISA) [4]: increased

COc1cc(COC(=O)CCCC/C=C/C(C)C)ccc1O [capsiate]
transcript expression of IL-6 (real-time PCR) [1]: significantly decreased | transcript expression of TNF-α (real-time PCR) [1]: significantly decreased | expression level of IL-6 (ELISA) [2]: significantly decreased | expression level of TNF-α (ELISA) [2]: significantly decreased | transcript expression of IL-6 (real-time PCR) [3]: significantly decreased | transcript expression of TNF-α (real-time PCR) [3]: significantly decreased | expression level of IL-6 (ELISA) [4]: significantly decreased | expression level of TNF-α (ELISA) [4]: significantly decreased | atopic dermatitis induced by DNFB in the mice [5]: inhibited | dermal thickness increased by DNFB ([5]; H&E stained skin section): decreased | level of serum IgE increased due to DNFB [6]: decreased | transcript expression of IL-4 increased by DNFB [7]: decreased | transcript expression of TSLP increased by DNFB [7]: decreased | transcript expression of CCL11 increased by DNFB [8]: decreased | transcript expression of CCL17 increased by DNFB [8]: decreased | transcript expression of CCL22 increased by DNFB [8]: decreased | Th2 cell differentiation increased by DNFB at the lymph node [9]: inhibited | Th2 cell differentiation increased by DNFB in the spleen [10]: inhibited | capillary vessel permeability increased by DNP IgE ([11]; Evan's blue extracted from mouse ear tissue, absorbance): inhibited | ear edema increased by DNP IgE ([11]; mouse ear thickness, ear thickness gauge): inhibited | transcript expression of IL-1β increased by IgE antigen [12]: decreased | transcript expression of IL-6 increased by IgE antigen [12]: decreased | transcript expression of TNF-α increased by IgE antigen [12]: decreased
